{"source": "patent US20220339100A1", "about": "“THERMOSENSITIVE MODIFIED CHITIN HYDROGEL LOCAL ANESTHETIC-LOADED SUSTAINED-RELEASE ANALGESIA SYSTEM, PREPARATION METHOD AND USE” (Wuhan University, priority 2021, published 2022)", "key": {"[1]": {"tested_on": "human neuroblastoma cell lines (SH-SY5Y)", "format": "cell-based", "details": "24 h, 5 mM", "method": "An in-vitro cytotoxicity test was performed on a ropivacaine-containing drug-loaded sustained-release system by using neuroblastoma cell line (SH-SY5Y) cells. Ropivacaine hydrochloride was dissolved into a PBS buffer to prepare a 10 mM ropivacaine solution, and the ropivacaine solution was diluted with a cell culture medium to prepare a cell culture medium with a concentration gradient of 0.5-5 mM in ropivacaine group; cell culture medium solutions containing HPCH2% and HA0.5% as well as a ropivacaine concentration of 10 mM were prepared at a low temperature and gelled at 37° C., and then a cell culture medium containing corresponding gel sustained-release systems and a ropivacaine concentration of 10 mM was prepared. SH-SY5Y cells were inoculated in a 96 well plate at a 10^4/mL cell density and normally cultured in a constant-temperature incubator for 24 h. Then, the above cell culture mediums containing pure drugs and drug gels were respectively added to be cultured for 24 h. The relative living cell numbers were tested by a Cell Counting Kit 8 (CCK-8) assay (FIG. 2)."}, "[2]": {"tested_on": "sciatic nerve of SD rats", "assay": "ultrasound-guided sciatic nerve block model, sensory block by hot plate method", "format": "in vivo, rat", "details": "0.5 mL around sciatic nerve", "method": "In order to evaluate the in-vivo analgesic effect of the drug-loaded sustained-release system, an ultrasound-guided sciatic nerve block model was used. Various sustained-release injection formulations containing ropivacaine were injected around the sciatic nerve of the right hind limb of SD rats under the guidance of ultrasound, and the nerve blocking effect was observed. The rats were anesthetized with 2% isoflurane and placed in a prone position. […] Then, the sensory and motor block of the right hind limbs of the rats were evaluated by a hot plate method and motor block 4-point method, respectively. […]\nOperation with hot plate method: the rats were placed on a preheated metal surface (55±0.5° C.), which was surrounded by a cylindrical Plexiglas wall (20 cm high and 28 cm in diameter) to limit the movement of the rats. […] This time was recorded as the basic thermal latency (baseline) time of rats (tested 2 days before the beginning of the experiment), which was generally about 3-5 s, and the rats with too short or too long baseline time were excluded. In order to prevent tissue injury, if the rats still have no pain response after 20 s, the rats were taken out and the time was recorded as 20 s. […] The test data were expressed as percentage of maximum possible effect (MPE %) with the calculation formula as follows: […]"}, "[3]": {"assay": "in-vitro cumulative drug release in PBS (dialysis bag, UV 263 nm)", "format": "physicochemical", "details": "within 6 hours, 37° C., 100 rpm, same drug content as 2.0% system", "method": "1 ml of the above dispersion (suspension) was sucked with a precision syringe at 4° C. and put into a dialysis bag (molecular weight cut off: 8000-14000 Da), then the dialysis bag was put into a centrifuge tube which was equipped with 30 ml of PBS solution and placed in a 37° C. constant-temperature water-bath shaker that was vibrated at 100 rpm, samples were taken at different time. 2 ml of PBS solution was taken every time to be used as a sample supplemented with 2 mL of fresh PBS solution, the taken sample was analyzed by ultraviolet-visible spectrophotometry, the PBS solution was used as blank control, and a wavelength was detected as 263 nm. According to a standard curve of ropivacaine, the drug concentration of ropivacaine was calculated and a cumulative release curve was plotted. Three samples in each group were set for repetition. FIG. 1 is an in-vitro cumulative release curve of 2.0% R-HPCH-HA hydrogel sustained-release system represented by a 2.0% ropivacaine hydrochloride-loaded, wherein pure drugs (R) with the same drug content and an HPCH carrier (no hyaluronic acid, R-HPCH group) alone with the same drug content are used as control group. […] Thus, the injectable hydrogel drug delivery system comprising auxiliary component hyaluronic acid is benefit to the long-lasting local analgesia."}}, "note": "Structures can show the parent of a compound that is named as a salt.", "data": [{"molecule": "CCCN1CCCC[C@H]1C(=O)Nc1c(C)cccc1C", "note": "[ropivacaine, ropivacaine hydrochloride]", "values": [{"measurement": "cell viability", "setting": "[1]", "value": 37.2, "unit": "%"}, {"measurement": "time after which MPE value came back to the normal baseline", "setting": "[2]", "value": 6, "unit": "h"}, {"measurement": "cumulative release rate of ropivacaine", "setting": "[3]", "value": "exceeds 80%"}]}]}
